Columns and labels:
human fyn SH2 domain = target: T1, human fyn SH2 domain (Homo sapiens, UniProt P06241); test: ELISA-based SH2 domain / pY peptide binding assay, fyn SH2 domain
T1 construct: made in house; host or cells: E. coli (pGEX-2T)
Experimental: (§1) The inhibitory activity of compounds at the different human SH2 domains was determined in vitro using SH2 domains expressed as fusion proteins in E. coli. The SH2 domains used herein were the human forms of the src SH2 domain, Grb2 SH2 domain, lck SH2 domain, fyn SH2 domain, SH-PTP2 SH2 domain, p85 SH2 domain and hcp SH2 domain.
(§2) Fusion proteins having the structure GST-X-SH2 were prepared as described in the GST gene fusion kit system available from Pharmacia (New Jersey). GST is the tagging sequence glutathione s-transferase epitope (SEQ ID NO: 8) for fyn, Grb2 and SH-PTP2 and is the tagging sequence glutathione s-transferase epitope (SEQ ID NO: 9) for p85. SH2 refers to the SH2 domains of fyn, Grb2, p85 and SH-PTP2 which were expressed and purified using glutathione Sepharose 4B (Pharmacia) according to "Current Protocols in Molecular Biology", ed. FM Ausubel et al., pub. John Wiley and Sons, Inc., (1995), p 16.7.1. X is an appropriate linker, preferably of 6 to 21 base pairs, used to keep the SH2 construct in frame and complement cloning. As such, the sequence of X is not critical. One skilled in the art can readily construct the appropriate linker. The DNA sequence encoding each GST-X-SH2 fusion protein was designed such that the indicated restriction sites (BamH1 and EcoRI) flank the SH2 region. […]

human p85 SH2 domain = target: T2, human p85 SH2 domain (Homo sapiens, UniProt P27986); test: ELISA-based SH2 domain / pY peptide binding assay, p85 SH2 domain
T2 construct: made in house; host or cells: E. coli (pGEX-3X)
Experimental: as §1, §2

[1] = Ki calculated from IC50 with the expanded equation
[2] = inhibition of binding of 0.1 uM biotinylated pY peptide to SH2 domain fusion protein

T1 sequence (P06241 143-252): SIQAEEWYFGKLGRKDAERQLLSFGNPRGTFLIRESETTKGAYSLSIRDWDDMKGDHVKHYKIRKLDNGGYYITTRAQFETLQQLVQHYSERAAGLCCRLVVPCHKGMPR
T2 sequence (P27986 321-440): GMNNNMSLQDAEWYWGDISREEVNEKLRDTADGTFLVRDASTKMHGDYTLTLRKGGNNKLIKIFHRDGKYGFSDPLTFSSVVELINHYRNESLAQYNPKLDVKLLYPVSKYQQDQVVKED

- Ki (human fyn SH2 domain; [1]): > 1 mM
- IC50 (human fyn SH2 domain; [2]): > 300 µM
- Ki (human p85 SH2 domain; [1]): > 1 mM
- IC50 (human p85 SH2 domain; [2]): > 300 µM
SMILES: CCCCCCNC(=O)[C@H]1CC[C@H](CNC(=O)c2ccc(C(=O)c3ccc(C(=O)O)cc3)cc2)CC1 [Compound 6, 4-carboxy-benzophenone-4-carboxamido-trans-4-methyl-cyclohexyl-N-hexyl carboxamide]
